Assay results published in ChEMBL document CHEMBL5465560, “Selectivity Literature for EUbOPEN Chemogenomic Library” (2024).

Assays:
[1] = target: Homeodomain-interacting protein kinase 3 (Homo sapiens, UniProt Q9H422); assay: Selectivity interaction (Enzymatic assay (Eurofins)) EUB0001049a HIPK3
[2] = target: STE20/SPS1-related proline-alanine-rich protein kinase (Homo sapiens) (UniProt Q9UEW8); assay: Selectivity interaction (KinomeScan (DiscoverX)) EUB0000666a STK39; details: at 10 µM
[3] = target: T1, Serine/threonine-protein kinase LATS1 (Homo sapiens) (UniProt O95835); assay: Selectivity interaction (KinomeScan (DiscoverX)) EUB0000229b LATS1; details: at 10 µM
T1 sequence (whole entry): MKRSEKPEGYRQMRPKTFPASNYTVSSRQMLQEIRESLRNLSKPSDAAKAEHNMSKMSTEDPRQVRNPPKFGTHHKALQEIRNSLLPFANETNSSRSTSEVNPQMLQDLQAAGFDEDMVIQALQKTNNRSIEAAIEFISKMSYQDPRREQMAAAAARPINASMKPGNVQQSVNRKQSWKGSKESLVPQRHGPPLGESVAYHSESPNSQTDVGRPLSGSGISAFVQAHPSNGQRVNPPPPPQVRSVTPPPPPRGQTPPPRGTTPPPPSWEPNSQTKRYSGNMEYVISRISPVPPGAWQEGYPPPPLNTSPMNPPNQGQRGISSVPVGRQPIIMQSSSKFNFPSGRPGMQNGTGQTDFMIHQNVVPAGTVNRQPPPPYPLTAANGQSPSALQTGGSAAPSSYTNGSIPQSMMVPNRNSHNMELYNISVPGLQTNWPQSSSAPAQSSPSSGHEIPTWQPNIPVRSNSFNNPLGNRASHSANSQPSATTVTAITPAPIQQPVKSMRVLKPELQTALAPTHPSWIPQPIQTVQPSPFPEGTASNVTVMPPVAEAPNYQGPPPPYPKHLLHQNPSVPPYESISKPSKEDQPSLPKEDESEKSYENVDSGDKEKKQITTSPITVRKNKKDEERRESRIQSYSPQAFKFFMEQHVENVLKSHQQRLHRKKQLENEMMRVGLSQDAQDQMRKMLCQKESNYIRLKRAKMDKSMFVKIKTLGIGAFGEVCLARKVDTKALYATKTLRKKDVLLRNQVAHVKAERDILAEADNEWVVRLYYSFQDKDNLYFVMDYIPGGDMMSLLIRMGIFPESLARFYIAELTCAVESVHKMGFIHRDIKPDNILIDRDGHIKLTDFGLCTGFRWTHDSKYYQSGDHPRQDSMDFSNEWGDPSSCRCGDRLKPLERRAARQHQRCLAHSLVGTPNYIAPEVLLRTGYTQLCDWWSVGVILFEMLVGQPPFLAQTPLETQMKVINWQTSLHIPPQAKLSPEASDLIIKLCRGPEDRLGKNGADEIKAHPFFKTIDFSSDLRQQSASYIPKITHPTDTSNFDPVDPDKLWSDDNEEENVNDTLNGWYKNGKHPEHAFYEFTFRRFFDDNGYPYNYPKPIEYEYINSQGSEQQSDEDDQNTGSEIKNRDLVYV

[4] = target: AP2-associated protein kinase 1 (Homo sapiens, UniProt Q2M2I8); assay: Selectivity interaction (Kinase panel (DSF assay)) EUB0001558a AAK1
AP2-associated protein kinase 1, sequence (Q2M2I8 whole entry, looked up): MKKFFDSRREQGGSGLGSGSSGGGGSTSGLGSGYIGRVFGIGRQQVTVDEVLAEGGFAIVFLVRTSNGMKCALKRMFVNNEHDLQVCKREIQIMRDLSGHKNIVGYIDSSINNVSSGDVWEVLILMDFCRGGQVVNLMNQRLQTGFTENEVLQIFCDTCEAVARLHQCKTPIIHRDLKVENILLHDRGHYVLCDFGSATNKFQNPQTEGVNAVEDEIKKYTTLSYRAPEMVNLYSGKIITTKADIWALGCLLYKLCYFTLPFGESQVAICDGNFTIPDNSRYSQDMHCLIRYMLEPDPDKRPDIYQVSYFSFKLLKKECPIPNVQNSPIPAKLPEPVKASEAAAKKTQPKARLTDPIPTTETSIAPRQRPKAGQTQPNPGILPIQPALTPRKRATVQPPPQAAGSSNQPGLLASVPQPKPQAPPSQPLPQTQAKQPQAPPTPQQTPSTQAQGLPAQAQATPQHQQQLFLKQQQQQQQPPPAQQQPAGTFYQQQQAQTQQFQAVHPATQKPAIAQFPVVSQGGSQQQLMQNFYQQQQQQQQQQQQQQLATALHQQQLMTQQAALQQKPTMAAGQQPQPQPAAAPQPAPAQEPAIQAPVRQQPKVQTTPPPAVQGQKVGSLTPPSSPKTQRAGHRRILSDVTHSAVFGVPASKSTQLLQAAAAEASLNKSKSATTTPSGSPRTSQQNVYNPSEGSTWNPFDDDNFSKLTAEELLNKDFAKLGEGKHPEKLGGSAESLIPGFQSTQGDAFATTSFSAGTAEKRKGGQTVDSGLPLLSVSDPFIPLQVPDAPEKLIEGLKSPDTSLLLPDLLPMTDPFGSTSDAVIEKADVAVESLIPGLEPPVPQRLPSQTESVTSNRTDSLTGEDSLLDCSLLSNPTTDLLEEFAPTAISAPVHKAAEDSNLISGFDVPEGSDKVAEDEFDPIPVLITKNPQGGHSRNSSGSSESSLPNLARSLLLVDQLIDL

[5] = target: T2, Mitogen-activated protein kinase kinase kinase 15 (Homo sapiens) (UniProt Q6ZN16); assay: Selectivity interaction (Ambit KINOMEscan and KiNATiv profiling in Jurkat cells) EUB0000090b MAP3K15; assay type: cell-based; details: at 1 µM
T2 sequence (whole entry): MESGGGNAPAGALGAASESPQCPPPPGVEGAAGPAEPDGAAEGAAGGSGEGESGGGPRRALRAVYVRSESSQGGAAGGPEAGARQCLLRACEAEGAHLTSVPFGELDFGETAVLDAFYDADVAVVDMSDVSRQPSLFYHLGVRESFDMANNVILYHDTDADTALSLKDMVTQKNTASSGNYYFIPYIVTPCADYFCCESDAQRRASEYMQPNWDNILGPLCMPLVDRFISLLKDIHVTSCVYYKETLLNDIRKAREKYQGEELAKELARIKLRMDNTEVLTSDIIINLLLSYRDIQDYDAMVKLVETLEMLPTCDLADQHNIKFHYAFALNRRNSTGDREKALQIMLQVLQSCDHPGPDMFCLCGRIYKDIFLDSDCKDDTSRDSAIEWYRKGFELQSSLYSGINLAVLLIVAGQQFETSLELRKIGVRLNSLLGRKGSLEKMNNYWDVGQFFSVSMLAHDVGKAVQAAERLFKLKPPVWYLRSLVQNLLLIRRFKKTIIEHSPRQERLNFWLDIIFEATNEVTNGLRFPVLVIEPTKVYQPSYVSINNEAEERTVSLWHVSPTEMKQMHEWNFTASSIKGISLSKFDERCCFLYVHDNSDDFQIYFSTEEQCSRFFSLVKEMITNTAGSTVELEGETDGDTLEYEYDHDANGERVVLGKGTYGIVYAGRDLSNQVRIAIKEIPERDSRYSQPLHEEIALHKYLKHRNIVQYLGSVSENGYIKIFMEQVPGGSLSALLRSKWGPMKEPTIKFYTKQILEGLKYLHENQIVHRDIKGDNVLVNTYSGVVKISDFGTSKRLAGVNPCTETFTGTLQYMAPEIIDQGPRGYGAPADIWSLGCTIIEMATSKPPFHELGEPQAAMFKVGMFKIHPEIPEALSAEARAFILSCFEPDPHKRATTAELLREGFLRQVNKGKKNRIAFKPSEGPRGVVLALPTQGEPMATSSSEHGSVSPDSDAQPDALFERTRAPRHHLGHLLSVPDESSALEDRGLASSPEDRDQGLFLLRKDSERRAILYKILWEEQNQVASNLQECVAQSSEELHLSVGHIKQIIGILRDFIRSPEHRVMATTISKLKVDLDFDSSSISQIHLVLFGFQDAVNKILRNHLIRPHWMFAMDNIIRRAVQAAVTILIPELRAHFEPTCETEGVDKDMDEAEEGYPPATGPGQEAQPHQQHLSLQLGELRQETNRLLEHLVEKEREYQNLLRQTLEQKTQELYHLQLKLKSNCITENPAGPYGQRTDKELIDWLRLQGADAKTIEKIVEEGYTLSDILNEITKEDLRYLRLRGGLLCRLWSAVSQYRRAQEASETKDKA

[6] = target: MAP kinase-activated protein kinase 2 (Homo sapiens, UniProt P49137); assay: Selectivity interaction (ProQinase) EUB0000171b MAPKAPK2
MAP kinase-activated protein kinase 2, sequence (P49137 whole entry, looked up): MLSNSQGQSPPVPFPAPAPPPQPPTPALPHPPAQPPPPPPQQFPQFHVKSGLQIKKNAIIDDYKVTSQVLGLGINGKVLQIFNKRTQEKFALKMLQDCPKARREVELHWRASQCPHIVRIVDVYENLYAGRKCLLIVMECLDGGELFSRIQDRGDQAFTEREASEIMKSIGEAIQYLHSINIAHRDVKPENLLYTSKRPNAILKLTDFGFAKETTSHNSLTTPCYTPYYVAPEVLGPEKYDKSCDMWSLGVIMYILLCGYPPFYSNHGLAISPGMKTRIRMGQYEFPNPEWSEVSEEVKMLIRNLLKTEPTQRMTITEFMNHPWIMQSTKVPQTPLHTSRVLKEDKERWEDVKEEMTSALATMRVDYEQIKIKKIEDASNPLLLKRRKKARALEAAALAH

Homeodomain-interacting protein kinase 3, sequence (Q9H422 whole entry): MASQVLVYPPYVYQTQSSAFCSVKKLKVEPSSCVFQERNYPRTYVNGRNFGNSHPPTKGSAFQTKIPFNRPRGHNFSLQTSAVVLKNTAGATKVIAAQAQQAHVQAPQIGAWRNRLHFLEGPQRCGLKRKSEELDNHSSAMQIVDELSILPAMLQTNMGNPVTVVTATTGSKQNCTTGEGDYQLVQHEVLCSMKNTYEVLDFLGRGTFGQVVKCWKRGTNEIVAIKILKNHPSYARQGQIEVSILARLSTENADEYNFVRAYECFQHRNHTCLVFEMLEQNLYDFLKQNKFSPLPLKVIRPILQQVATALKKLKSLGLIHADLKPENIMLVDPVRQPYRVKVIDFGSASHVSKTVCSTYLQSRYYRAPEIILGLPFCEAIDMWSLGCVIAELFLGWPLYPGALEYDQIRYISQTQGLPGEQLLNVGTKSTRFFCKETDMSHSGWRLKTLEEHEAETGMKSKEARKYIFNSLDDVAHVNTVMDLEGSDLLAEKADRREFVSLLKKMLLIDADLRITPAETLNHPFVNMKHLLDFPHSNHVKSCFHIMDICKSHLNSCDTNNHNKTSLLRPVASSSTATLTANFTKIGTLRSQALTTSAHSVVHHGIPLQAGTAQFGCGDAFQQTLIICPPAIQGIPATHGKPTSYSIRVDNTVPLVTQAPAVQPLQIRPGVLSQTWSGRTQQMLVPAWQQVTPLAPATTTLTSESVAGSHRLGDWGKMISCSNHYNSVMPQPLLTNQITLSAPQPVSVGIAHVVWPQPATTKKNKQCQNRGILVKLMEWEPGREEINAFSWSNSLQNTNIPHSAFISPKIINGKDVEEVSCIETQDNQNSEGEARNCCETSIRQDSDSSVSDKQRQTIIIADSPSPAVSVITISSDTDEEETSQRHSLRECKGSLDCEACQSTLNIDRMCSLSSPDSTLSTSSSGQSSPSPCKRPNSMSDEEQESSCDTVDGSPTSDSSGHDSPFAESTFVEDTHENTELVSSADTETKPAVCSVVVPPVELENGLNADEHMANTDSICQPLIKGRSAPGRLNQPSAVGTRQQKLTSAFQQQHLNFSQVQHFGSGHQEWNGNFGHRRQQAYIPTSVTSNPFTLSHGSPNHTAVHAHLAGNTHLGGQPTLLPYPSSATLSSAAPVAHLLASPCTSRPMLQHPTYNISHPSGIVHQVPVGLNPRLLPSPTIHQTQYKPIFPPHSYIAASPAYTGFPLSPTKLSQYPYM

Compound: COc1cc(Nc2nc(C)cc(-c3cnn4nc(OC)ccc34)n2)cc(C(F)(F)F)c1
- IC50 [1]: > 10 µM

Compound: O=C(NOC[C@H](O)CO)c1ccc(F)c(F)c1Nc1ccc(I)cc1F
- % of control [2]: 96%

Compound: COc1cc(N(C)c2ccnc3ccc(C(F)(F)F)cc23)cc(OC)c1OC
- % binding [3]: 100%

Compound: CC(C)(O)[C@H](F)CN1Cc2cc(NC(=O)c3cnn4cccnc34)c(N3CCOCC3)cc2C1=O
- dTM [4]: 0.2 K

Compound: CN(C)C/C=C/C(=O)Nc1ccc(C(=O)N2CCCC(Nc3ncc(Cl)c(-c4c[nH]c5ccccc45)n3)C2)cc1 (configuration not stated)
- % of control [5]: 73%

Compound: C=CC(=O)Nc1cccc(C(=O)Nc2ccc(Nc3cc(-c4[nH]c(SC)nc4C)ccn3)cc2)c1
- % of control ([6]; at 1 µM): 71%
- % of control ([6]; at 5 µM): 42%
